Assay results from patent publication US8188090B2, “Naphthylacetic acids” (Hoffman-La Roche Inc., priority 2008, dated 2012).

Target: T1, human CRTH2 (Homo sapiens, UniProt Q9Y5Y4)
T1 sequence (Q9Y5Y4 1-395): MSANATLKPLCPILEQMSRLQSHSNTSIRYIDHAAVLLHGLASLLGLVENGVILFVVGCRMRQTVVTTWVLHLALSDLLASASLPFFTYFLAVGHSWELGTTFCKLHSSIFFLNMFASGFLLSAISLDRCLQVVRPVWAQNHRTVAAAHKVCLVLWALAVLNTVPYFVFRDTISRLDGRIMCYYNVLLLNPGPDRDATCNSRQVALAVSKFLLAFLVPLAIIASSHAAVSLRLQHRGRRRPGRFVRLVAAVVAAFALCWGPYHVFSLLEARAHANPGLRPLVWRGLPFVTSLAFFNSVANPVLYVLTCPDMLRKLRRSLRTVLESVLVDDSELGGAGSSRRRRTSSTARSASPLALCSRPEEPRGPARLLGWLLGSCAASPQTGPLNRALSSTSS
Assay: Human CRTH2 Receptor Binding Assay (whole cell, [3H]ramatroban)
Set-up: expressed in transfected cells; host or cells: CHO-K1
Settings: whole CHO-K1 cells stably expressing human CRTH2 and G-alpha16; 20 nM [3H]ramatroban; 1 hour, room temperature
Description: A whole cell receptor binding assay using [^3H]ramatroban as the competing radioactive ligand was employed to evaluate the compound binding activity to human CRTH2. The radioactive ligand [^3H]ramatroban was synthesized according to Sugimoto et. al. (Eur. J. Pharmacol. 524, 30-37, 2005) to a specific activity of 42 Ci/mmol.
A cell line stably expressing human CRTH2 was established by transfecting CHO-K1 cells with two mammalian expression vectors that harbored human CRTH2 and G-alpha16 cDNAs, respectively, using FuGene® 6 transfection reagent (from Roche). Stable clones expressing CRTH2 were selected by staining each clone with BM16 (BD Pharmingen™ from BD Biosciences, a division of Becton, Dickinson and Company), which is a rat monoclonal antibody to human CRTH2. The cells were maintained as monolayer cultures in Ham's F-12 medium containing 10% fetal bovine serum, 100 units/mL penicillin, 100 μg/mL streptomycin, 2 mM glutamine, 0.5 mg/mL G418 (geneticin) for CRTH2, and 0.2 mg/mL hygromycin-B (for G-alpha 16). For whole cell receptor binding assay, the monolayer cells were rinsed once with PBS (phosphate buffered saline), dissociated using ethylenediaminetetraacetate (Versene™ EDTA from Lonza Inc.), and suspended in PBS containing 10 mM MgCl2 and 0.06% BSA (bovine serum albumin) at 1.5×10^6 cells/mL.
The binding reactions (0.2 mL) were performed in 96-well plates at room temperature in PBS containing 1.5×10^5 cells, 10 mM MgCl2, 0.06% BSA, 20 nM [^3H]ramatroban, and test compound at various concentrations. After 1 hour of binding reactions, the cells were harvested on GF™/B filter microplates (microtiter plates with embedded glass fiber from PerkinElmer, Inc.) and washed 5 times with PBS using a Filtermate™ Harvester (a cell harvester that harvests and washes cells from microplates from PerkinElmer, Inc.). The radioactivities bound to the cells were determined using a microplate scintillation counter (TopCount® NXT, from PerkinElmer, Inc.) after adding 50 μL of Microscint™ 20 scintillation fluid (from PerkinElmer, Inc.) to each well of the filter plates. The radioactivity from non-specific binding was determined by replacing compound with 10 μM of 15(R)-15-methyl PGD2 (from Cayman Chemical Company) in the reaction mixtures. The radioactivity bound to the cells in the absence of compound (total binding) was determined by replacing compound with 0.25% of DMSO (dimethyl sulfoxide) in the reaction mixture. Specific binding data were obtained by subtracting the radioactivity of non-specific binding from each binding data.
The IC50 value is defined as the concentration of the tested compound that is required for 50% inhibition of total specific binding. In order to calculate the IC50 value, the percent inhibition data were determined for 7 concentrations for each compound. The percent inhibition for a compound at each concentration was calculated according to the following formula, [1-(specific binding in the presence of compound)/(total specific binding)]×100. The IC50 value was then obtained by fitting the percent inhibition data to a sigmoidal dose-response (4 parameter logistic) model in the XLfit® software Excel add-in program [from ID Business Solutions Ltd., model 205, where F(x)=(A+(B−A)/(1+((C/x)^D)))].

SMILES	IC50 [nM]
O=C(O)Cc1cc(OC2CCN(C(=O)Nc3ccccc3F)CC2)c2cc(F)ccc2c1 [Example 6-2, {6-Fluoro-4-[1-(2-fluoro-phenylcarbomoyl)-piperidin-4-yloxy]-naphthalen-2-yl}-acetic acid]	4.3
CS(=O)(=O)N1CCC(Oc2cc(CC(=O)O)cc3ccc(F)cc23)CC1 [Example 4-1, [6-Fluoro-4-(1-methanesulfonyl-piperidin-4-yloxy)-naphthalen-2-yl]-acetic acid]	9.3
Cc1c(CC(=O)O)cc2ccc(F)cc2c1C(=O)N1CCN(S(=O)(=O)C(F)(F)F)CC1 [Example 1-5, [6-Fluoro-3-methyl-4-(4-trifluoromethanesulfonyl-piperazine-1-carbonyl)-naphthalen-2-yl]-acetic acid]	7.6
O=C(O)Cc1cc(OC2CCN(S(=O)(=O)C3CCCC3)CC2)c2cc(F)ccc2c1 [Example 4-5, [4-(1-Cyclopentanesulfonyl-piperidin-4-yloxy)-6-fluoro-naphthalen-2-yl]-acetic acid]	9.9
Cc1c(CC(=O)O)cc2ccc(F)cc2c1C(=O)N1CCN(S(=O)(=O)C2CC2)CC1 [Example 1-6, [4-(4-Cyclopropanesulfonyl-piperazine-1-carbonyl)-6-fluoro-3-methyl-naphthalen-2-yl]-acetic acid]	9.1
Cc1c(CC(=O)O)cc2ccc(F)cc2c1C(=O)N1CCN(S(=O)(=O)c2ccccc2)CC1 [Example 1-9, [4-(4-Benzenesulfonyl-piperazine-1-carbonyl)-6-fluoro-3-methyl-naphthalen-2-yl]-acetic acid]	3.7
Cc1c(CC(=O)O)cc2ccc(F)cc2c1C(=O)N1CC2(C1)CN(S(=O)(=O)c1ccccc1)C2 [Example 1-10, [4-(6-Benzenesulfonyl-2,6-diaza-spiro[3.3]heptane-2-carbonyl)-6-fluoro-3-methyl-naphthalen-2-yl]-acetic acid]	207
Cc1c(CC(=O)O)cc2ccc(F)cc2c1C(=O)N1CCN(c2ccc(C#N)cc2)CC1 [Example 2-24, {4-[4-(4-Cyano-phenyl)-piperazine-1-carbonyl]-6-fluoro-3-methyl-naphthalen-2-yl}-acetic acid]	22
COc1cccc(N2CCN(C(=O)c3c(C)c(CC(=O)O)cc4ccc(F)cc34)CC2)c1 [Example 2-9, {6-Fluoro-4-[4-(3-methoxy-phenyl)-piperazine-1-carbonyl]-3-methyl-naphthalen-2-yl}-acetic acid]	63.1
Cc1c(CC(=O)O)cc2ccc(F)cc2c1C(=O)N1CCN(c2ccccc2Cl)CC1 [Example 2-20, {4-[4-(2-Chloro-phenyl)-piperazine-1-carbonyl]-6-fluoro-3-methyl-naphthalen-2-yl}-acetic acid]	127
Cc1ccc(N2CCN(C(=O)c3c(C)c(CC(=O)O)cc4ccc(F)cc34)CC2)cc1 [Example 2-16, [6-Fluoro-3-methyl-4-(4-p-tolyl-piperazine-1-carbonyl)-naphthalen-2-yl]-acetic acid]	26.8
O=C(O)Cc1cc(OC2CCN(S(=O)(=O)c3ccccc3)CC2)c2cc(F)ccc2c1 [Example 4-6, [4-(1-Benzenesulfonyl-piperidin-4-yloxy)-6-fluoro-naphthalen-2-yl]-acetic acid]	3.2
Cc1cccc(N2CCN(C(=O)c3c(C)c(CC(=O)O)cc4ccc(F)cc34)CC2)c1 [Example 2-6, [6-Fluoro-3-methyl-4-(4-m-tolyl-piperazine-1-carbonyl)-naphthalen-2-yl]-acetic acid]	81.5
Cc1c(CC(=O)O)cc2ccc(F)cc2c1C(=O)N1CCN(S(=O)(=O)c2cccc(F)c2)CC1 [Example 1-16, {6-Fluoro-4-[4-(3-fluoro-benzenesulfonyl)-piperazine-1-carbonyl]-3-methyl-naphthalen-2-yl}-acetic acid]	3.1
Cc1c(CC(=O)O)cc2ccc(F)cc2c1C(=O)N1CCN(S(=O)(=O)c2ccc(F)cc2)CC1 [Example 1-12, {6-Fluoro-4-[4-(4-fluoro-benzenesulfonyl)-piperazine-1-carbonyl]-3-methyl-naphthalen-2-yl}-acetic acid]	8.3
O=C(O)Cc1cc(OC2CCN(S(=O)(=O)c3ccc(F)cc3)CC2)c2cc(F)ccc2c1 [Example 4-8, {6-Fluoro-4-[1-(4-fluoro-benzenesulfonyl)-piperidin-4-yloxy]-naphthalen-2-yl}-acetic acid]	2.4
CCCS(=O)(=O)N1CCN(C(=O)c2cc(CC(=O)O)cc3ccc(F)cc23)CC1 [Example 1-7, {6-Fluoro-4-[4-(propane-1-sulfonyl)-piperazine-1-carbonyl]-naphthalen-2-yl}-acetic acid]	6.5
CCNC(=O)N1CCC(Oc2cc(CC(=O)O)cc3ccc(F)cc23)CC1 [Example 6-1, [4-(1-Ethylcarbamoyl-piperidin-4-yloxy)-6-fluoro-naphthalen-2-yl]-acetic acid]	24.5
Cc1c(CC(=O)O)cc2ccc(F)cc2c1C(=O)N1CCN(c2ccc(F)cc2)CC1 [Example 2-1, {6-Fluoro-4-[4-(4-fluoro-phenyl)-piperazine-1-carbonyl]-3-methyl-naphthalen-2-yl}-acetic acid]	18.2
CC(C)C(=O)N1CCC(Oc2cc(CC(=O)O)cc3ccc(F)cc23)CC1 [Example 5-3, [6-Fluoro-4-(1-isobutyryl-piperidin-4-yloxy)-naphthalen-2-yl]-acetic acid]	141
Cc1c(CC(=O)O)cc2ccc(F)cc2c1C(=O)N1CCN(c2ccc(C(F)(F)F)cn2)CC1 [Example 2-22, {6-Fluoro-3-methyl-4-[4-(5-trifluoromethyl-pyridin-2-yl)-piperazine-1-carbonyl]-naphthalen-2-yl}-acetic acid]	11.2
